This note sets out measurements from patent US20130253179A1, “Functionalization Processes and Reactants Used in Such Processes Using an Isatoic Anhydride or a Derivative Thereof, Biological Molecules Thus Treated and Kits” (priority 2010, published 2013).

Broadly, the solubility is the dissolved amount per volume that the medium holds. Read a low solubility as little dissolved substance.

In one data set the test system is HIV WT transcript. Briefly: NASBA amplification of functionalised, captured and eluted HIV transcripts. The format is biochemical. As to the method:
In the preceding example 12, 4 μg of a WT HIV transcript (1083 nucleotides, internal production, bioMérieux batch 841470301, C=3.27E12 copies μl) was biotinylated with different concentrations of the compound (24) (0 mM, 15 mM, 30 mM, 120 mM, 180 mM, i.e. the experiments #1-7 of Table 6). This transcript was then captured on Merck MagPrep 25 Streptavidin magnetic particles, then, after rinsing, the particles were subjected to a 100 mM DTT treatment in PBS 1x pH 7 at 40° C. for one hour, in order to cleave the disulfide bond (SS) and elute the transcripts with —SH anthranilate groups, as shown in FIG. 16. We evaluated the ability of these transcripts to be amplified by the NASBA technology. This evaluation was performed as a comparison with an unfunctionalised “bare” HIV_WT transcript range.
The amplification is performed on a NucliSENS EasyQ instrument (bioMérieux, Lyon, France) and with a NucliSENS EasyQ HIV-1 V2.0 kit (bioMérieux, Lyon, France, ref. 285033, batch 09122106). The software used is NucliSENS EasyQ Director, and the protocol is QL1-60 1.0 (bioMérieux, Lyon, France).
After functionalisation with compound 24, capture and elution in 8 μL of 100 mM DTT, as described in example 12, the transcripts of experiments #2-5 from Table 7 were assayed on RNA 6000 NANO chip with the AGILENT bioanalyzer (Santa Clara, USA), and were diluted in the following concentrations: 1000 copies, 100 copies, 50 copies, 10 copies, 1 copy, 0 copies in 15 μl. An HIV IC transcript (internal control of the same amplified sequence as the WT (wild type) transcript, but detected by a molecular beacon carrying another fluorophore) diluted to 360 copies is added to the 15 μl volume, and will be present in all of the wells in which the amplifications occur. This transcript serves to monitor the correct operation of the amplification. The tests are carried out in triplicate.
Six Accuspheres ENZ II (NucliSENS EasyQ HIV-1 V2.0 kit, ref. 285033, bioMérieux, Lyon, France) are deposited into a 1.5 ml polypropylene tube. A volume of 270 μL of ENZdil H (NucliSENS EasyQ HIV-1 V2.0 kit, ref. 285033, bioMérieux, Lyon, France) is added onto the Accuspheres, and 15 minutes are allowed to pass, for them to dissolve completely. The twelve Accuspheres PRM H (NucliSENS EasyQ HIV-1 V2.0 kit, ref. 285033, bioMérieux, Lyon, France) are deposited into a 1.5 ml polypropylene tube 1080 μL of PRMdi l H (NucliSENS EasyQ HIV-1 V2.0 kit, ref. 285033, bioMérieux, Lyon, France) is added onto these Accuspheres and the mixture is immediately vortex stirred until the Accuspheres dissolve completely. After complete dissolution in the two tubes (mix ENZ II and mix PRM H), these mixtures are centrifuged with a benchtop centrifuge. […]

`Cn1c(=O)oc(=O)c2cc(NC(=O)CCSSCCNC(=O)CCOCCOCCOCCOCCNC(=O)CCCCC3SCC4NC(=O)NC43)ccc21` (centres unmarked) [5Biot PEG4 SS IA Me 24]: the “Minimum number of copies detected” value with HIV WT transcript (15 mM functionalisation reagent) is given as 10 copies; in the data set on HIV WT transcript (30 mM functionalisation reagent), 10 copies; in the data set on HIV WT transcript (120 mM functionalisation reagent), 100 copies; in the data set on HIV WT transcript (180 mM functionalisation reagent), 1000 copies.

The molecule `CCN1/C(=C\C=C\C2=[N+](CCCCCC(=O)Nc3ccc4c(c3)c(=O)oc(=O)n4C)c3ccc(S(=O)(=O)[O-])cc3C2(C)C)C(C)(C)c2cc(S(=O)(=O)[O-])ccc21.[K+]` [Cy3 IA Me 13, 1-methyl 5-Cy3-isatoic anhydride] returned a solubility in “Solubility in water” of over 100 mM.
